Each structure is given as a SMILES string.

T1 sequence (Q09429 whole entry): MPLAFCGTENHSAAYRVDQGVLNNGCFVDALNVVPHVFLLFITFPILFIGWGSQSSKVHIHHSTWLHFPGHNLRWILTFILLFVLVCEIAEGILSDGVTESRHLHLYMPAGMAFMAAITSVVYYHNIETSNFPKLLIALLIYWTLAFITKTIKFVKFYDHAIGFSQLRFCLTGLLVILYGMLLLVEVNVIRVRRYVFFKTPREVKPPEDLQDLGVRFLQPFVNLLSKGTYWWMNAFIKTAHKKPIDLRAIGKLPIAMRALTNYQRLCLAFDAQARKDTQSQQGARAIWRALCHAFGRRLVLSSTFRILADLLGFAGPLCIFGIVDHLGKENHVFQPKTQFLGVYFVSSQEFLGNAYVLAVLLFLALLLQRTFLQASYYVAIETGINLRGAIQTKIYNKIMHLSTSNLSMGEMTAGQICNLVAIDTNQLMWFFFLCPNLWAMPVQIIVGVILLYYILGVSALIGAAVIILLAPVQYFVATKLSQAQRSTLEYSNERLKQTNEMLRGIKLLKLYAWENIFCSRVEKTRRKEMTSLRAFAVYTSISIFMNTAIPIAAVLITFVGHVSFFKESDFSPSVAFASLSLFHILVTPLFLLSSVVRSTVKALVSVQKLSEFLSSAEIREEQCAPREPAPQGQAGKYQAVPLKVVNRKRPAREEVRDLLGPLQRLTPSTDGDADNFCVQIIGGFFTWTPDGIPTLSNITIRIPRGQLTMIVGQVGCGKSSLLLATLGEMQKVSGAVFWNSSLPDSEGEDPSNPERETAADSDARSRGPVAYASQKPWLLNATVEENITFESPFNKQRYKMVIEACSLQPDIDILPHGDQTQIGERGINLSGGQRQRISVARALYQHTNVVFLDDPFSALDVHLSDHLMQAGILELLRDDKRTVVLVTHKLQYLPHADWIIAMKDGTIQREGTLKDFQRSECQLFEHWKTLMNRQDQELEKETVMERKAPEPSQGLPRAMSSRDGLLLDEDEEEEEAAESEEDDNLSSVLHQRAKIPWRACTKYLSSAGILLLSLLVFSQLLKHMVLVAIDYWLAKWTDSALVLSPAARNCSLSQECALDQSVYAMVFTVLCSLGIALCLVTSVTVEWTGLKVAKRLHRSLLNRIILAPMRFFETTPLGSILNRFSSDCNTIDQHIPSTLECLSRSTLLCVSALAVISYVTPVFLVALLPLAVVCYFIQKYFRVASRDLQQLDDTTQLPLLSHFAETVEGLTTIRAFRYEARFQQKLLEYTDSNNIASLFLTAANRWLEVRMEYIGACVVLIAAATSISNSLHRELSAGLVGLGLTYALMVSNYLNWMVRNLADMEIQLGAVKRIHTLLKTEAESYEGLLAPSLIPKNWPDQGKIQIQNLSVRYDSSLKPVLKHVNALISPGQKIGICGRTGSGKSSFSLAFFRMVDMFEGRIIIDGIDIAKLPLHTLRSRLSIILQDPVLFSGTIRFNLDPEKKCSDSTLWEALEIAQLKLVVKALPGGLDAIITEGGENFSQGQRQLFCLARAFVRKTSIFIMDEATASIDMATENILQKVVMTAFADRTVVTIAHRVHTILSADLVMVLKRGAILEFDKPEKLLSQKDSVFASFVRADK
T1 sequence (P70673 whole entry partner): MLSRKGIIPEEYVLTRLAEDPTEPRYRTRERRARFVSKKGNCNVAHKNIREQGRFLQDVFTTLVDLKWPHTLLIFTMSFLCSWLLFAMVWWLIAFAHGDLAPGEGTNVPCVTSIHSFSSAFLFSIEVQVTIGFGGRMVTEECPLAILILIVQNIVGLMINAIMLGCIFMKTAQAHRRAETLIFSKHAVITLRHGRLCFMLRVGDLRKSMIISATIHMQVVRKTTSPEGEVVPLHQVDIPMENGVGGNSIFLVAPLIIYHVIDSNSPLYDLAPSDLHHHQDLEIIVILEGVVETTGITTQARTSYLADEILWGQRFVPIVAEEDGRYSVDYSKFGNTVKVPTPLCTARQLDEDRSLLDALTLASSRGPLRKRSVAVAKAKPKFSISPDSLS

The assay addresses T1, ATP-dependent potassium channels (K+ATP) (Rattus norvegicus, UniProt Q09429).
T1 construct: the potassium channels derive from a rat's cerebral cortex; tissue CEREP; host or cells: rat cerebral cortex
Description: [3H]glibenclamide binding to ATP-dependent potassium channels of rat cerebral cortex. Conditions: 1 h; 300 nM; specific displacement of [3H]glibenclamide 0.1 nM; read-out: KATP binding (300 nM). The method, then:
The results shown reflect the specific affinity of the inventive compounds on the ATP-dependent (K^+ATP) potassium channels. The specific binding measured corresponds to the difference between the total binding and the non-specific binding determined in the presence of an excess of non-marked reference ligand (glibenclamide 1 μM). The inventive compounds were tested at doses between 3 and 300 nM: the higher the percentage measured, the stronger the affinity of the compound for the ATP-dependent potassium channels.
The binding test was carried out at CEREP (Celle L'Evescault, France (86)) according to a protocol inspired by Angel et al. (Angel and Bidet 1991): the potassium channels derive from a rat's cerebral cortex and the reference compound is [^3H]glibenclamide at 0.1 nM. The protocol consists of incubation at 22° C. for one hour.
In general terms: In a radioligand displacement assay an active substance lowers the binding of a labelled ligand.
As for `CC(C)(Oc1ccc(CC(=O)NC(c2ccccc2)c2ccccc2N2CCCCC2)cc1)C(=O)O` (stereo not drawn) [Compound 3, 2-[4-[1-(1-phenyl-1-(2-(1-piperidinyl)phenyl)methyl)aminocarbonylmethyl]phenoxy]-2-methylpropanoic acid], the inhibition at 0.3 µM is 75%.
Regarding `CC(C)(Oc1ccc(CC(=O)NC(c2ccccc2N2CCCCC2)C2CCCCC2)cc1)C(=O)O` (stereo not drawn) [Compound 6, 2-[4-[1-(1-cyclohexyl-1-(2-(1-piperidinyl)phenyl)methyl)aminocarbonylmethyl]phenoxy]-2-methylpropanoic acid], the inhibition at 0.3 µM came to 47%.
In the case of `CC(C)CC(NC(=O)Cc1ccc(OC(C)(C)C(=O)O)cc1)c1cccc(N2CCCCC2)c1` (stereo not drawn) [Compound 8, 2-[4-[1-(3-methyl-1-(3-(1-piperidinyl)phenyl)butyl)aminocarbonylmethyl]phenoxy]-2-methylpropanoic acid], the inhibition at 0.3 µM turned out to be 48%.
Take `CC(C)CC(NC(=O)Cc1ccc(OC(C)(C)C(=O)O)cc1)c1ccccc1N1CCCC1` (stereo not drawn) [Compound 16, 2-[4-[1-(3-methyl-1-(2-(1-pyrrolidinyl)phenyl)butyl)aminocarbonylmethyl]phenoxy]-2-methylpropanoic acid]: the inhibition at 0.3 µM amounted to 76%.
For `CC(C)CC(NC(=O)Cc1ccc(OC(C)(C)C(=O)O)cc1)c1ccccc1N1CCCCCC1` (stereo not drawn) [Compound 18, 2-[4-[1-(3-methyl-1-(2-(1-hexamethyleneimino)phenyl)butyl)aminocarbonylmethyl]phenoxy]-2-methylpropanoic acid], the inhibition at 0.3 µM worked out at 69%.
Consider `CCN(CC)c1ccccc1C(CC(C)C)NC(=O)Cc1ccc(OC(C)(C)C(=O)O)cc1` (stereo not drawn) [Compound 20, 2-[4-[1-(3-methyl-1-(2-(diethylamino)phenyl)butyl)aminocarbonylmethyl]phenoxy]-2-methylpropanoic acid], for which the inhibition at 0.3 µM was determined as 85%.
As to `CC(C)CC(NC(=O)Cc1ccc(OC(C)(C)C(=O)O)cc1)c1cc(Cl)ccc1N1CCCCC1` (stereo not drawn) [Compound 22, 2-[4-[1-(3-methyl-1-(2-(1-piperidinyl)-5-(chloro)phenyl)butyl)aminocarbonylmethyl]phenoxy]-2-methylpropanoic acid], the inhibition at 0.3 µM was 88%.
For `CC(C)CC(NC(=O)Cc1ccc(OCC(=O)O)cc1)c1ccccc1N1CCCCC1` (stereo not drawn) [Compound 23, 2-[4-[1-(3-methyl-1-(2-(1-piperidinyl)phenyl)butyl)aminocarbonylmethyl]phenoxy]acetic acid], the inhibition at 0.3 µM turned out to be 97%.
For `CC(C)CC(NC(=O)Cc1ccc(OC(C)C(=O)O)cc1)c1ccccc1N1CCCCC1` (stereo not drawn) [Compound 24, 2-[4-[1-(3-methyl-1-(2-(1-piperidinyl)phenyl)butyl)aminocarbonylmethyl]phenoxy]propanoic acid] the value was 93%.
Then `CCC(Oc1ccc(CC(=O)NC(CC(C)C)c2ccccc2N2CCCCC2)cc1)C(=O)O` (stereo not drawn) [Compound 25, 2-[4-[1-(3-methyl-1-(2-(1-piperidinyl)phenyl)butyl)aminocarbonylmethyl]phenoxy]butanoic acid], with 91%; and `CC(C)CC(NC(=O)Cc1ccc(OC(C(=O)O)C(C)C)cc1)c1ccccc1N1CCCCC1` (stereo not drawn) [Compound 26, 2-[4-[1-(3-methyl-1-(2-(1-piperidinyl)phenyl)butyl)aminocarbonylmethyl]phenoxy]-3-methylbutanoic acid], with 92%.
Regarding `CC(C)CC(NC(=O)Cc1ccc(OC(C(=O)O)c2ccccc2)cc1)c1ccccc1N1CCCCC1` (stereo not drawn) [Compound 27, 2-[4-[1-(3-methyl-1-(2-(1-piperidinyl)phenyl)butyl)aminocarbonylmethyl]phenoxy]-2-phenylacetic acid], the inhibition at 0.3 µM stood at 95%.
In the case of `CC(C)CC(NC(=O)Cc1cccc(OC(C)(C)C(=O)O)c1)c1ccccc1N1CCCCC1` (stereo not drawn) [Compound 29, 2-[3-[1-(3-methyl-1-(2-(1-piperidinyl)phenyl)butyl)aminocarbonylmethyl]phenoxy]-2-methylpropanoic acid], the inhibition at 0.3 µM was found to be 15%.
Turning to `CCCCC(c1ccccc1N1CCCCC1)N(CC(C)C)C(=O)Cc1ccc(OC(C)(C)C(=O)O)cc1` (stereo not drawn) [Compound 35, 2-[4-[N-isobutyl-N-(1-(2-(1-piperidinyl)phenyl)pentyl)aminocarbonylmethyl]phenoxy]-2-methylpropanoic acid], the inhibition at 0.3 µM is 22%.
Regarding `CC(C)CC(NC(=O)Cc1ccc(OC(C)(C)C(=O)O)cc1)c1cc(Br)ccc1N1CCCCC1` (stereo not drawn) [Compound 37, 2-[4-[1-(3-methyl-1-(2-(1-piperidinyl)-5-(bromo)phenyl)butyl)aminocarbonylmethyl]phenoxy]-2-methylpropanoic acid], the inhibition at 0.3 µM was found to be 76%.
Then `CCCCC(NC(=O)Cc1ccc(OC(C)(C)C(=O)O)cc1)c1ccccc1S(=O)(=O)c1ccccc1` (stereo not drawn) [Compound 41, 2-[4-[1-(1-(2-(phenylsulfonyl)phenyl)pentyl)aminocarbonylmethyl]phenoxy]-2-methylpropanoic acid], with 12%.
Then `CCCCC(NC(=O)Cc1ccc(OC(C)(C)C(=O)O)cc1)c1ccccc1O` (stereo not drawn) [Compound 44, 2-[4-[1-(1-(2-(hydroxy)phenyl)pentyl)aminocarbonylmethyl]phenoxy]-2-methylpropanoic acid], with 48%.
As for `CC(C)(Oc1ccc(CC(=O)NC(CCc2ccccc2)c2ccccc2N2CCCCC2)cc1)C(=O)O` (stereo not drawn) [Compound 51, 2-[4-[1-(3-phenyl-1-(2-(1-piperidinyl)phenyl)propyl)aminocarbonylmethyl]phenoxy]-2-methylpropanoic acid], the inhibition at 0.3 µM is 32%.
Regarding `CC(C)CC(NC(=O)Cc1ccc(OC(C)(C)C(=O)O)c(Cl)c1)c1ccccc1N1CCCCC1` (stereo not drawn) [Compound 56, 2-[2-chloro-4-[1-(3-methyl-1-(2-(1-piperidinyl)phenyl)butyl)aminocarbonylmethyl]phenoxy]-2-methylpropanoic acid], the inhibition at 0.3 µM was found to be 49%.
For `CC(C)CC(NC(=O)Cc1ccc(OC(C)(C)C(=O)NS(C)(=O)=O)cc1)c1ccccc1N1CCCCC1` (stereo not drawn) [Compound 58, N-[methylsulfonyl]-2-[4-[1-(3-methyl-1-(2-(1-piperidinyl)phenyl)butyl)aminocarbonylmethyl]phenoxy]-2-methylpropanamide], the inhibition at 0.3 µM came to 94%.
As to `CC(C)(Oc1ccc(CC(=O)NC(Cc2ccccc2)c2ccccc2N2CCCCC2)cc1)C(=O)NS(C)(=O)=O` (stereo not drawn) [Compound 62, N-[methylsulfonyl]-2-[4-[1-(2-phenyl-1-(2-(1-piperidinyl)phenyl)ethyl)aminocarbonylmethyl]phenoxy]-2-methylpropanamide], the inhibition at 0.3 µM came to 46%.

The values are drawn from patent US20060079696A1, “Substituted compounds derived from N-(benzyl)phenylacetamide, preparation and uses” (GENFIT, priority 2004, published 2006).
